From US7671112B2, “Method of making fluoropolymer dispersion” (priority 2005, dated 2010)
Marks after values point to notes of the source that are not given here.

Assay: Determination of bio-accumulation: urinary clearance pharmacokinetic study in rats
Assay type: in vivo, male Sprague Dawley rats
Conditions: oral gavage; for T½: elimination via urine, exponential least squares curve fitting of concentration in urine; for Compound-related Effects: clinical observation and gross necropsy 96 hours post-dose
[1] = 73 micro Moles per kg body weight
[2] = 73 micro Moles per kg body weight, recovered in urine up to 96 h
[3] = 73 micro Moles per kg, based on elimination of the major metabolite C3F7—O—CHFCOO−, no parent compound in urine

## N.O=C(O)C(F)(F)OC(F)(F)C(F)(F)OC(F)(F)C(F)(F)F [Compound 10, C2F5—O—CF2—CF2—O—CF2—COONH4]
[1]
  T½: 10 h
[2]
  % Recovery (96 h): 99%

## N.O=C(O)C(F)(F)OC(F)(F)C(F)(OC(F)(F)C(F)(F)C(F)(F)F)C(F)(F)F (centres unmarked) [Compound C-3, C3F7—O—CF(CF3)—CF2—O—CF2—COONH4, reference compound]
[1]
  Compound-related Effects: Hepatomegaly
  T½: 95 h
[2]
  % Recovery (96 h): 5%

## N.O=C(O)C(F)(F)OC(F)(F)OC(F)(F)F [Compound 2, CF3—OCF2—O—CF2—COONH4]
[1]
  T½: 12 h
[2]
  % Recovery (96 h): 96%

## N.O=C(O)C(F)(F)C(F)(F)OC(F)(F)F [Compound 6, CF3—O—CF2—CF2—COONH4]
[1]
  T½: 11 h
[2]
  % Recovery (96 h): 100%

## N.O=C(O)C(F)(F)C(F)(F)OC(F)(F)C(F)(F)C(F)(F)F [Compound 8, C3F7—O—CF2—CF2—COONH4]
[1]
  T½: 12 h
[2]
  % Recovery (96 h): 82%

## N.O=C(O)C(F)(F)OC(F)(F)C(F)(F)C(F)(F)OC(F)(F)F [Compound 4, CF3—(OCF2)3—OCF2—COONH4]
[2]
  % Recovery (96 h): 50%

## N.O=C(O)C(F)(F)OC(F)(F)OC(F)(F)OC(F)(F)F [Compound 3, CF3—OCF2—OCF2—OCF2—COONH4]
[1]
  T½: 12 h
[2]
  % Recovery (96 h): 100%

## N.O=C(O)C(F)(F)C(F)(F)C(F)(F)OC(F)C(F)(F)F (centres unmarked) [Compound 15, CF3—CFH—O—(CF2)3—COONH4]
[1]
  T½: 8 h
[2]
  % Recovery (96 h): 95%

## N.O=C(O)C(F)(F)C(F)(F)OC(F)(F)C(F)(F)F [Compound 7, C2F5—O—CF2—CF2—COONH4]
[1]
  T½: 10 h
[2]
  % Recovery (96 h): 100%

## N.O=C(O)C(F)(F)C(F)(F)C(F)(F)C(F)(F)C(F)(F)OC(F)C(F)(F)F (centres unmarked) [Compound 14, CF3—CFH—O—(CF2)5—COONH4]
[1]
  Compound-related Effects: Hepatomegaly
  T½: 24 h
[2]
  % Recovery (96 h): 32%

## N.O=C(O)C(F)(F)C(F)(F)C(F)(F)C(F)(F)C(F)(F)C(F)(F)C(F)(F)F [Compound C-1, C7F15COONH4, reference compound]
[1]
  Compound-related Effects: Hepatomegaly
  T½: ~550 h
[2]
  % Recovery (96 h): 6%

## N.O=C(O)C(F)(F)OC(F)(F)C(F)(F)C(F)(F)OC(F)(F)F [Compound 1, CF3—O—(CF2)3—O—CF2—COONH4]
[2]
  % Recovery (96 h): 73%

## N.O=C(O)C(F)(F)OC(F)(F)C(F)(F)C(F)(F)F [Compound 5, C3F7—O—CF2—COONH4]
[1]
  T½: 11 h
[2]
  % Recovery (96 h): 97%

## N.O=C(O)C(F)OC(F)(F)C(F)(F)C(F)(F)OC(F)(F)F (centres unmarked) [Compound 12, CF3—O—CF2—CF2—CF2—O—CHF—COONH4]
[1]
  T½: 11 h
[2]
  % Recovery (96 h): 95%

## N.O=C(O)C(F)(F)C(F)OC(F)(F)C(F)(F)C(F)(F)OC(F)(F)F (centres unmarked) [Compound 11, CF3—O—CF2—CF2—CF2—O—CHF—CF2—COONH4]
[1]
  T½: 12 h
[2]
  % Recovery (96 h): 84%

## N.O=C(O)C(F)(F)C(F)(F)OC(F)(F)C(F)(F)C(F)(F)C(F)(F)F [Compound 9, C4F9—O—CF2—CF2—COONH4]
[1]
  Compound-related Effects: Hepatomegaly
  T½: 31 h
[2]
  % Recovery (96 h): 42%

## N.O=C(O)COC(F)(F)C(F)OC(F)(F)C(F)(F)C(F)(F)F (centres unmarked) [Compound 16, C3F7—O—CFH—CF2—O—CH2—COONH4]
[3]
  % Recovery (96 h): 65* %
  T½ (h): 13* h

## N.O=C(O)C(F)(F)C(F)OC(F)(F)C(F)(F)C(F)(F)F (centres unmarked) [Compound 13, C3F7—O—CFH—CF2COONH4]
[1]
  T½: 11 h
[2]
  % Recovery (96 h): 94%
